Data published in patent US20250064945A1 (Arvinas Operations, Inc., priority 2021, published 2025).

Biological target: T1, BRM (Homo sapiens, UniProt P51531)
T1 construct: In-Cell Western Screen of BRM Degradation in SW1573 Cells; endogenous in cells; host or cells: SW1573 cells
Test: Western blot / In-Cell Western screen of BRM degradation in SW1573 cells
Type: cell-based
Conditions: overnight (18-20 hours) treatment; for Dmax: read-out: Dmax (%) (% degraded)
Procedure: Western Blot Screen of BRM Degradation in SW1573 Cells
(§1) To assess BRM degradation (Dmax and DC50) cells were seeded at 8000/well in 96-well black/clear-bottom plates in 180 μL DMEM growth media (containing 1% pen-strep, 1% HEPES and 10% FBS) per well. Plates were incubated overnight to allow adhesion. The next morning cells were treated by adding 20 μL of 10× target compound concentration (1% DMSO) to appropriate wells and returned to incubator for overnight (18-20 hours). The final DMSO concentration was 0.1%.
For lysing, adherent cells were washed once with 100 μL of DPBS. Cells were lysed in 40 μL of 1× RIPA+HALT protease inhibitor on ice for 10 minutes and frozen until use at −80° C. Thawed lysates were cleaned by filtration in 1.2 µm filter plates, or alternatively, were spun clean at 2300 g at 4° C. for 30 minutes.
For blotting, for each Western sample 30 μL of lysate was added to 10 μL of 4×LDS sample buffer, then denatured at 95° C. for 5 minutes in the thermal cycler and placed on ice. Samples were loaded on 4-15% Tris/Glycine gels and run for 25 minutes at 250 constant volts in 1×Tris/Glycine buffer with 4 μL of ladder and 12 μL of each sample loaded for each blot. Protein was transferred from gels to NC with BioRad Turbo dry-transfer unit with the Turbo/midi default program. All blots were rinsed with ddH2O and blocked for 1 hour at room temperature in 5% BSA in TBST (0.1%) on rocker. Blots were exposed to primary antibody in 5% BSA in TBST (0.1%) overnight at 4° C. on rocker (1:1000 for BRM (Cell Signaling Tech. cat #11966) and 1:2000 for alpha-tubulin (Cell Signaling Tech. cat #3873), a control protein. Blot was washed with TBST (0.1%) three times for 5 minutes on rocker at room temperature. Secondary antibody was added, and blots were incubated on a room temperature rocker for 1 hour with 1:18,000 anti-rabbit-HRP and/or anti-mouse-HRP in 5% BSA in TBST (0.1%). Blots were washed three times in TBST (0.1%) for 5 minutes at room temperature on the rocker. Signal was developed with Femto Maximum Sensitivity substrate for 4 minutes and blots read on ChemiDoc™.
In-Cell Western Screen of BRM Degradation in SW1573 Cells
as §1, with “DC50),” for “DC50)”, “10×” for “10× target”, “compound” for “compound concentration”
For processing, the plates were removed from incubator, the media was removed, and immediately 200 μL of cold (4° C.) DPBS was added to all wells. DPBS was then removed, and 50 μL of 4% paraformaldehyde (PFA) in DPBS (4° C.) was added to all wells, and the plates were incubated at room temperature for 20 minutes. PFA was then removed, and 200 μL of TBS-T containing 0.5% Triton X-100 was added to all wells, and the plates were incubated at room temperature for 30 minutes. TBS-T containing 0.5% Triton X-100 was then removed, and 50 μL of Li-Cor blocking solution was added, and the plates were incubated at room temperature for a minimum of one hour. The blocking solution was removed, and 50 μL of Li-Cor blocking solution containing primary antibody cocktail was added (1:1000 for BRM (Cell Signaling Tech. cat #11966) and 1:2000 for alpha-tubulin (Sigma cat #T6074), a control protein. Plates were then placed in cold room until the next day.
The next day plates were washed three times with TBS-T, 200 μL per well. Fifty […] of secondary antibody cocktail in LI-COR blocking solution (anti-rabbit_800 nm and anti-mouse_680 nm) was added to all wells (diluted 1:5000). The plates were incubated at room temperature for at least one hour while protected from light. The plates were washed twice with TBS-T, 200 μL per well. […]

T1 sequence (P51531 whole entry): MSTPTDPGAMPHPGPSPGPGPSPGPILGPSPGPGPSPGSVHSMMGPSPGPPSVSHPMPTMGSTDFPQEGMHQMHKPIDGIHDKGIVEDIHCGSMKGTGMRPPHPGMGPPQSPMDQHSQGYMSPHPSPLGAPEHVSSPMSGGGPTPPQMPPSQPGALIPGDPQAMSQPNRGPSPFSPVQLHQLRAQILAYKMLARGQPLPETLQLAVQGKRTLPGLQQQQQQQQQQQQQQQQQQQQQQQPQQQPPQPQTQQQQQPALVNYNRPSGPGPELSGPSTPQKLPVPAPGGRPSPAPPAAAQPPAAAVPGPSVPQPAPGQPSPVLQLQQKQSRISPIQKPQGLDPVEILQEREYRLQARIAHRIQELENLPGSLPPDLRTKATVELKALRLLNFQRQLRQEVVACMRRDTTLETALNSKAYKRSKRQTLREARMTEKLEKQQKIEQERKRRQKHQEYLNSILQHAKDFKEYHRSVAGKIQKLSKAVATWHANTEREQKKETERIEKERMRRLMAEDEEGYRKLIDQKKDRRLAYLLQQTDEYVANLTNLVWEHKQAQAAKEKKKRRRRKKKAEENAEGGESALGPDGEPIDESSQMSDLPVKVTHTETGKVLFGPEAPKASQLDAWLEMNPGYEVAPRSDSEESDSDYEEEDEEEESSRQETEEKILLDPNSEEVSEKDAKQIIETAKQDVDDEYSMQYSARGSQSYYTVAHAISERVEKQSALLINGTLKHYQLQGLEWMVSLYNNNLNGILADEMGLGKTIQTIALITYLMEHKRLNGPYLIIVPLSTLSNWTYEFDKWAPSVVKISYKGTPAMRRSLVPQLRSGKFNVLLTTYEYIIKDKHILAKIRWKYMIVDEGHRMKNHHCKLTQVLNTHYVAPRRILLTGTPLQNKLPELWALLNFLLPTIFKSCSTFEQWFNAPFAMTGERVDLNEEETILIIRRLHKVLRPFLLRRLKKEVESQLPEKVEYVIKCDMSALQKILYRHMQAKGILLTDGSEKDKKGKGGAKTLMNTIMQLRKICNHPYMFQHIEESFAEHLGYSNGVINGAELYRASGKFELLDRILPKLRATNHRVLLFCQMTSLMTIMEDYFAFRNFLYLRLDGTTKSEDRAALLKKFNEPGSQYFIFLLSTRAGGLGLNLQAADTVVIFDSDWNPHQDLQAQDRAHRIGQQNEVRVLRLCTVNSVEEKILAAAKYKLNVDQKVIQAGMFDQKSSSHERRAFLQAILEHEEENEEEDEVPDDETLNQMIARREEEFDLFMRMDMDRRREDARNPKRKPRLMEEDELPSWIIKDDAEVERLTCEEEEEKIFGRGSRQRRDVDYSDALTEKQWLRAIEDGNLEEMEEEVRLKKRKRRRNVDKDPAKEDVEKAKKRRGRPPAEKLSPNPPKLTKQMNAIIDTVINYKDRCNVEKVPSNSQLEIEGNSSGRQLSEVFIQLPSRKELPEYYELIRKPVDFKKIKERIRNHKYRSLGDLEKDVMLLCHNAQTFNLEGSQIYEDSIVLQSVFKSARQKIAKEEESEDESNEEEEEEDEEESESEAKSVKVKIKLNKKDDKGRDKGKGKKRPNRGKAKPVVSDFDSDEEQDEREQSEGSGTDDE

SMILES | DC50 [nM] | Dmax [%]
Cc1ncsc1-c1ccc([C@H](C)NC(=O)[C@@H]2C[C@@H](O)CN2C(=O)[C@@H](c2cc(OCCN3CCN(CCOc4cc(N5CCN(c6cc(-c7ccccc7O)nnc6N)CC56COC6)ccn4)CC3)no2)C(C)C)cc1 [Compound 15, (2S,4R)-1-[(2R)-2-{3-[2-(4-{2-[(4-{8-[3-amino-6-(2-hydroxyphenyl)pyridazin-4-yl]-2-oxa-5,8-diazaspiro[3.5]nonan-5-yl}pyridin-2-yl)oxy]ethyl}piperazin-1-yl)ethoxy]-1,2-oxazol-5-yl}-3-methylbutanoyl]-4-hydroxy-N-[(1S)-1-[4-(4-methyl-1,3-thiazol-5-yl)phenyl]ethyl]pyrrolidine-2-carboxamide] | < 2.5 | > 75
CC(C)[C@@H](C(=O)N1C[C@H](O)C[C@H]1C(=O)N[C@@H](C)c1ccc(-c2ccnn2C)cc1)c1cc(N2CCC(CN3CCC(O[C@H]4C[C@H](C#Cc5cn6cc(-c7ccccc7O)nc6nc5N)C4)CC3)CC2)no1 [Compound 33] | < 2.5 | > 75
Cc1ncsc1-c1ccc([C@H](C)NC(=O)[C@@H]2C[C@@H](O)CN2C(=O)[C@@H](c2cc(N3CCC(CN4CCC(O[C@H]5C[C@H](Oc6cc(N7CCN(c8cc(-c9ccccc9O)nnc8N)CC78COC8)ccn6)C5)CC4)CC3)no2)C(C)C)cc1 [Compound 4, (2S,4R)-4-hydroxy-N-[(1S)-1-[4-(4-methyl-1,3-thiazol-5-yl)phenyl]ethyl]-1-[(2R)-3-methyl-2-{3-[4-({4-[(1r,3r)-3-[(4-{8-[3-amino-6-(2-hydroxyphenyl)pyridazin-4-yl]-2-oxa-5,8-diazaspiro[3.5]nonan-5-yl}pyridin-2-yl)oxy]cyclobutoxy]piperidin-1-yl}methyl)piperidin-1-yl]-1,2-oxazol-5-yl}butanoyl]pyrrolidine-2-carboxamide] | < 2.5 | > 75
Cc1ncsc1-c1ccc([C@H](C)NC(=O)[C@@H]2C[C@@H](O)CN2C(=O)[C@@H](c2cc(N3CCC(CN4CCC(O[C@H]5C[C@H](N6CCC(CN7CCN(c8cc(-c9ccccc9O)nnc8N)CC78COC8)CC6)C5)CC4)CC3)no2)C(C)C)cc1 [Compound 13, (2S,4R)-4-hydroxy-N-[(1S)-1-[4-(4-methyl-1,3-thiazol-5-yl)phenyl]ethyl]-1-[(2R)-3-methyl-2-{3-[4-({4-[(1r,3r)-3-[4-({8-[3-amino-6-(2-hydroxyphenyl)pyridazin-4-yl]-2-oxa-5,8-diazaspiro[3.5]nonan-5-yl}methyl)piperidin-1-yl]cyclobutoxy]piperidin-1-yl}methyl)piperidin-1-yl]-1,2-oxazol-5-yl}butanoyl]pyrrolidine-2-carboxamide] | < 2.5 | > 75
Cc1nccn1-c1ccc([C@H](C)NC(=O)[C@@H]2C[C@@H](O)CN2C(=O)[C@H](c2cc(OCCN3CCN(CCOc4cc(N5CCN(c6cc(-c7ccccc7O)nnc6N)CC56COC6)ccn4)CC3)no2)C(C)C)cc1 [Compound 21, (2S,4R)-1-[(2S)-2-{3-[2-(4-{2-[(4-{8-[3-amino-6-(2-hydroxyphenyl)pyridazin-4-yl]-2-oxa-5,8-diazaspiro[3.5]nonan-5-yl}pyridin-2-yl)oxy]ethyl}piperazin-1-yl)ethoxy]-1,2-oxazol-5-yl}-3-methylbutanoyl]-4-hydroxy-N-[(1S)-1-[4-(2-methyl-1H-imidazol-1-yl)phenyl]ethyl]pyrrolidine-2-carboxamide] | ≥ 30 | 
Cc1nccn1-c1ccc([C@H](C)NC(=O)[C@@H]2C[C@@H](O)CN2C(=O)[C@@H](c2cc(OCCN3CCN(CCOc4cc(N5CCN(c6cc(-c7ccccc7O)nnc6N)CC56COC6)ccn4)CC3)no2)C(C)C)cc1 [Compound 20, (2S,4R)-1-[(2R)-2-{3-[2-(4-{2-[(4-{8-[3-amino-6-(2-hydroxyphenyl)pyridazin-4-yl]-2-oxa-5,8-diazaspiro[3.5]nonan-5-yl}pyridin-2-yl)oxy]ethyl}piperazin-1-yl)ethoxy]-1,2-oxazol-5-yl}-3-methylbutanoyl]-4-hydroxy-N-[(1S)-1-[4-(2-methyl-1H-imidazol-1-yl)phenyl]ethyl]pyrrolidine-2-carboxamide] | 2.5 to 10 | > 75
CC(C)[C@@H](C(=O)N1C[C@H](O)C[C@H]1C(=O)N[C@@H](C)c1ccc(-c2ccnn2C)cc1)c1cc(N2CCC(CN3CCC(O[C@H]4C[C@H](N5CCC(C/C=C/c6cn7cc(-c8ccccc8O)nc7nc6N)CC5)C4)CC3)CC2)no1 [Compound 44, (2S,4R)-4-hydroxy-N-[(1S)-1-[4-(1-methyl-1H-pyrazol-5-yl)phenyl]ethyl]-1-[(2R)-3-methyl-2-{3-[4-({4-[(1r,3r)-3-{4-[(2E)-3-[7-amino-2-(2-hydroxyphenyl)imidazo[1,2-a]pyrimidin-6-yl]prop-2-en-1-yl]piperidin-1-yl}cyclobutoxy]piperidin-1-yl}methyl)piperidin-1-yl]-1,2-oxazol-5-yl}butanoyl]pyrrolidine-2-carboxamide] | < 2.5 | > 75
CC(C)[C@@H](C(=O)N1C[C@H](O)C[C@H]1C(=O)N[C@@H](C)c1ccc(-c2ccnn2C)cc1)c1cc(N2CCC(CN3CCC(O[C@H]4C[C@H](OC/C=C/c5cn6cc(-c7ccccc7O)nc6nc5N)C4)CC3)CC2)no1 [Compound 45, (2S,4R)-4-hydroxy-N-[(1S)-1-[4-(1-methyl-1H-pyrazol-5-yl)phenyl]ethyl]-1-[(2R)-3-methyl-2-{3-[4-({4-[(1r,3r)-3-{[(2E)-3-[7-amino-2-(2-hydroxyphenyl)imidazo[1,2-a]pyrimidin-6-yl]prop-2-en-1-yl]oxy}cyclobutoxy]piperidin-1-yl}methyl)piperidin-1-yl]-1,2-oxazol-5-yl}butanoyl]pyrrolidine-2-carboxamide] | < 2.5 | > 75
Cc1ncsc1-c1ccc([C@H](C)NC(=O)[C@@H]2C[C@@H](O)CN2C(=O)[C@@H](c2cc(N3CCC(CN4CCC(O[C@H]5C[C@H](N6CCC(O[C@H]7C[C@H](C#Cc8cc(-c9ccccc9O)nnc8N)C7)CC6)C5)CC4)CC3)no2)C(C)C)cc1 [Compound 5, (2S,4R)-4-hydroxy-N-[(1S)-1-[4-(4-methyl-1,3-thiazol-5-yl)phenyl]ethyl]-1-[(2R)-3-methyl-2-{3-[4-({4-[(1r,3r)-3-(4-[(1r,3r)-3-{2-[3-amino-6-(2-hydroxyphenyl)pyridazin-4-yl]ethynyl}cyclobutoxy]piperidin-1-yl}cyclobutoxy]piperidin-1-yl}methyl)piperidin-1-yl]-1,2-oxazol-5-yl}butanoyl]pyrrolidine-2-carboxamide] | < 2.5 | > 75
Cc1ncsc1-c1ccc([C@H](C)NC(=O)[C@@H]2C[C@@H](O)CN2C(=O)[C@@H](c2cc(N3CCC(CN4CCC(O[C@H]5C[C@H](Oc6cc(CCc7cc(-c8ccccc8O)nnc7N)ccn6)C5)CC4)CC3)no2)C(C)C)cc1 [Compound 1, (2S,4R)-4-hydroxy-N-[(1S)-1-[4-(4-methyl-1,3-thiazol-5-yl)phenyl]ethyl]-1-[(2R)-3-methyl-2-{3-[4-({4-[(1r,3r)-3-[(4-{2-[3-amino-6-(2-hydroxyphenyl)pyridazin-4-yl]ethyl}pyridin-2-yl)oxy]cyclobutoxy]piperidin-1-yl}methyl)piperidin-1-yl]-1,2-oxazol-5-yl}butanoyl]pyrrolidine-2-carboxamide] | 2.5 to 10 | > 75
